{"source": "patent US8263754B2", "about": "“Amphiphiles for protein solubilization and stabilization” (Wisconsin Alumni Research Foundation, priority 2008, dated 2012)", "key": {"[1]": {"test_system": "LHI-RC superassembly in Rhodobacter capsulatus membranes", "settings": "for extraction of LHI-RC superassembly from R. capsulatus membranes: solubilized protein, optical spectroscopy", "from_the_text": "These complexes, normally embedded in the bacterial membrane, are highly pigmented and several outcomes from an assay are possible, including no degradation, partial degradation or complete degradation upon solubilization, or no solubilization. Thus, graded comparative evaluations could be obtained for a set of candidates such as the amphiphiles described herein.\nIn the engineered strain of R. capsulatus employed, the photosynthetic unit was comprised of a very labile LHI complex and a more resilient RC complex. An ideal amphiphile for this system will extract the intact LHI-RC superassembly from a bacterial membrane preparation and maintain the natural interactions among the components. Amphiphiles with a more disruptive effect will dissociate and denature LHI, leaving only intact RC, and even harsher amphiphiles will cause RC degradation. Each of these various outcomes can be assessed unambiguously via optical spectroscopy (FIG. 2 inset).\nMeasurements. The starting material for the screening protocols and stability measurements included specialized photosynthetic membranes from an engineered strain of Rhodobacter (R.) capsulatus, U43[pUHTM86Bgl]\nTo begin the solubilization and purification process, frozen aliquots of R. capsulatus membranes were thawed, homogenized, and equilibrated to 32° C. for 30 minutes. […] For subsequent experiments, the amphiphiles were evaluated at 10-fold CMC during the solubilization step.\nThe membrane samples were allowed to incubate with the amphiphile for 30 minutes at 32° C. The solubilized material was then separated from the membrane debris in an ultracentrifuge at 315,000×g at 4° C. for 30 minutes. […] After a UV-Vis-nearIR absorption spectrum was recorded, the resuspended pellet was discarded. […] The tubes were then incubated and inverted for 1 hour at 4° C.\nOnce binding was complete, samples were loaded onto resin-retaining spin columns (e.g., emptied His Spin Trap™ columns; GE Healthcare). The columns were then inserted into a 2 mL microcentrifuge tube to retain the filtered solution during centrifugation. […] Finally, protein was eluted into a fresh microcentrifuge tube with three 0.2 mL elution buffer aliquots (this buffer was identical to binding buffer with the addition of 1 M imidazole).\nThe R. capsulatus LHI-RC complexes extracted and purified by this procedure contain large numbers of cofactors that have absorptions at distinct wavelengths, and each component of the LHI-RC superassembly has a different inherent stability outside the lipid bilayer. The solubilization protocol outlined above therefore provides a multifaceted assessment of the efficacy of conventional detergents and novel amphiphiles. UV-Vis absorption spectroscopy data obtained at various stages of the protocol allow one to determine which protein components have degraded at these stages. […] The disruption potential was measured as the yield of superassembly extracted during solubilization (or, alternatively and more precisely, as the absence of superassembly in the pellet from the spin following solubilization).\nThe stabilizing propensity was determined from the spectra of the purified protein. An amphiphile was judged to be mild and stabilizing if it allowed the purification of fully intact LHI-RC superassembly (dominant absorption band at 875 nm). […] An amphiphile was judged to be of intermediate strength if it allowed for the purification of fully intact RC with damaged or missing LHI (dominant absorption at 800 nm with a shoulder at 875 nm; damaged LHI still bound to RC absorbs at 760 nm).\nFirst, solubilization (illustrated in “STEP 1” of FIG. 12) denotes the ability of a surfactant to penetrate, integrate and disrupt a lipid bilayer."}, "LHI-RC superassembly": {"test_system": "T1, LHI-RC superassembly", "T1 construct": "Starting with protein complexes in their native lipid bilayer; made in house; host or cells: Rhodobacter capsulatus U43[pUHTM86Bgl], intracytoplasmic membranes (strain lacks LHII)", "assay": "Stability over time of solubilized, purified LHI-RC superassembly (A875/A680 ratio)", "set-up": "species or system Rhodobacter capsulatus", "settings": "room temperature, 875 nm/680 nm absorption ratio over two to three weeks", "procedure": "FIG. 3. To monitor the ability of micelles of DDM, TPA-2, and MPA-2(C12) to stabilize membrane protein complexes, spectra of the protein purified by each detergent were recorded as a function of time. The initial spectrum (t=0) was acquired directly after elution of the protein from affinity chromatography. The integrity of the LHI-RC superassembly solubilized by these relatively mild detergents was monitored quantitatively from a scatter-corrected absorbance ratio (A875/A680). The ratio of a sample of completely folded and functional supperassembly is >14.5, and this ratio declines dramatically as the multi-subunit complex disassembles and denatures.\nStability was monitored by following the 875 nm/680 nm absorption ratio over a two to three weeks (absorption at 680 nm arises from oxidation of bacteriochlorophyll that has dissociated from LHI protein).\nSimilar criteria and protocols were used to judge the ability of amphiphiles to maintain solubilized and purified superassembly for extended periods. In this case, UV Vis-nearIR spectra were recorded at regular intervals. The degradation of the material could be monitored with the A875/A680 absorbance ratio, which decreased with time and sample integrity as the dominant 875 nm absorption of intact LHI disappeared and a 680 nm band appeared, indicating the presence of unbound, oxidized cofactors."}, "[2]": {"assay": "Critical micelle concentration (CMC) by dye solubilization (Orange OT or DPH)", "type": "physicochemical", "settings": "for critical micelle concentration (CMC): aqueous solubilization of Orange OT; for CMC / CMC (%): determined by DPH (diphenylhexatriene) or Orange OT", "from_the_text": "Aqueous solubilization of Orange OT was used to determine critical micelle concentrations (CMC). […] Facile self-association of these amphiphiles under these conditions may be hindered by the hydrophilicity and/or steric bulk of the triglucoside and dimaltoside headgroups.\nThe Critical Micelle Concentrations (CMCs) of compounds of the invention can be determined by standard techniques known to those of skill in the art. For example, CMCs of the carbohydrate-based amphiphiles described herein can be determined by monitoring uptake of a dye (e.g., Orange OT or 1,6-diphenylhexatriene) with increasing detergent concentration, monitored by UV-visible or fluorescence spectroscopy."}, "bacteriorhodopsin (bR)": {"biological_target": "T2, bacteriorhodopsin (bR) (Halobacterium salinarum, UniProt P02945)", "T2 sequence (P02945 14-262)": "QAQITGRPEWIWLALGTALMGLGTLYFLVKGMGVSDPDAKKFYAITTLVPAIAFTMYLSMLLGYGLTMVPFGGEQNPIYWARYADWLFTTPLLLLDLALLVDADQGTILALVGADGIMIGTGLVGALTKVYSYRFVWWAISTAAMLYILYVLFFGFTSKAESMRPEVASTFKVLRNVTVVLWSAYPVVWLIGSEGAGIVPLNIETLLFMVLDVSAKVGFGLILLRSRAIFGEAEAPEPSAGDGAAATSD", "settings": "cited from earlier work"}, "bovine rhodopsin": {"biological_target": "bovine rhodopsin (Bos taurus, UniProt P02699)", "settings": "cited from earlier work"}}, "note": "Entries after “also recorded” stand apart in the source; their conditions may differ. Where two headings read alike, the source gives them in different places.", "data": [{"smiles": "CCCCCCCCCCCCO[C@@H]1O[C@H](CO)[C@@H](O[C@H]2O[C@H](CO)[C@@H](O)[C@H](O)[C@H]2O)[C@H](O)[C@H]1O", "note": "[DDM, dodecyl-β-D-maltopyranoside, reference compound]", "values": [{"measurement": "extraction of LHI-RC superassembly from R. capsulatus membranes", "setting": "[1]", "value": "comparable to TPA-2 and TPA-2-S"}, {"measurement": "stability of solubilized LHI-RC superassembly", "setting": "LHI-RC superassembly", "value": "begins to degrade immediately"}]}, {"smiles": "CCCCC(CCCC)(CC(=O)NCCC[N+](C)(C)[O-])c1ccccc1", "note": "[TPA0, reference compound]", "values": [{"measurement": "extraction of LHI-RC superassembly from R. capsulatus membranes", "setting": "[1]", "value": "too harsh to be useful for the preparation of intact superassembly"}, {"measurement": "critical micelle concentration (CMC)", "setting": "[2]", "value": 5.5, "unit": "mM"}, {"measurement": "CMC", "setting": "[2]", "value": 4.4, "unit": "mM"}, {"measurement": "CMC (%)", "setting": "[2]", "value": 0.16, "unit": "%"}, {"measurement": "solubilization of bacteriorhodopsin (bR)", "setting": "bacteriorhodopsin (bR)", "value": "effectively solubilized"}, {"measurement": "stability of resulting protein solution (bR)", "setting": "bacteriorhodopsin (bR)", "value": "stable for several weeks"}, {"measurement": "solubilization of bovine rhodopsin", "setting": "bovine rhodopsin", "value": "effectively solubilized"}, {"measurement": "stability of resulting protein solution (bovine rhodopsin)", "setting": "bovine rhodopsin", "value": "stable for several weeks"}]}, {"smiles": "CCCCC(CCCC)(CC(=O)NC(CO[C@H]1OC(CO)[C@H](O)C(O)[C@H]1O)CO[C@H]1OC(CO)[C@H](O)C(O)[C@H]1O)c1ccccc1", "note": "(stereo partly drawn) [TPA2]", "values": [{"measurement": "875 nm/760 nm absorption ratio", "setting": "[1]; solubilized protein from R. capsulatus membranes", "value": "~8"}, {"measurement": "extraction of LHI-RC superassembly from R. capsulatus membranes", "setting": "[1]", "value": "intact LHI-RC superassembly in high yield"}, {"measurement": "critical micelle concentration (CMC)", "setting": "[2]", "value": 3.6, "unit": "mM"}, {"measurement": "CMC", "setting": "[2]", "value": 3.6, "unit": "mM"}, {"measurement": "CMC (%)", "setting": "[2]", "value": 0.24, "unit": "%"}, {"measurement": "stability of solubilized LHI-RC superassembly", "setting": "LHI-RC superassembly", "value": "remains stable for several days"}]}, {"smiles": "CCCCC(CCCC)(CC(=O)NC(CO[C@H]1OC(CO)[C@H](O)C(O)C1O)CO[C@H]1OC(CO)[C@H](O)C(O)C1O)C1CCCCC1", "note": "(stereo partly drawn) [TPA21]", "values": [{"measurement": "extraction of LHI-RC superassembly from R. capsulatus membranes", "setting": "[1]; listed as TPA-2-S", "value": "as good as or better than TPA-2 at extracting membrane proteins; also recorded: at least as effective as TPA-2, if not superior; also recorded: equal to or superior to TPA-2 at extracting membrane proteins"}, {"measurement": "critical micelle concentration (CMC)", "setting": "[2]", "value": 1.8, "unit": "mM"}, {"measurement": "CMC", "setting": "[2]", "value": 1.8, "unit": "mM"}, {"measurement": "CMC (%)", "setting": "[2]", "value": 0.12, "unit": "%"}, {"measurement": "stability of solubilized LHI-RC superassembly", "setting": "LHI-RC superassembly", "value": "more stabilizing than those of TPA-2"}]}]}
